This is an account of results in patent publication US10980238B2, “Alkali metal salt for use in treatment of varroa destructor mite infestation of honey bees” (Universität Hohenheim, priority 2015, dated 2021).

“And” between values parts separate entries of the source, which are not always exact repeats. Identical values can stand only once. Like-named read-outs stand apart in the source and are kept apart here.

The test system of one data set is Varroa destructor. The source says: (§1) The bees were fed with Li-salt/sucrose solutions for 7 days. Survival rate of bees and mites were monitored daily and dead bees or mites were removed.
For data set [1], the system named is bees.
Text: as §1

The subject of data set [2] is bees. Description: Experiment 4 cage test of MgCl2 (50 bees, 20 mites): bee health. The settings on record: 100 mM in sucrose syrup. The format is in vivo, Apis mellifera. How it is done:
To test the activity of bivalent ions we dissolved MgCl2 in sucrose syrup at a final concentration of 100 mM. 2 cages of 50 bees to which 20 mites were added were fed with sucrose syrup only and syrup containing 100 mM MgCl2.

For the next data set, the system named is Varroa mites. Description: Experiment 5 cage comparison of LiCl, NaCl and MgCl2: dead mites. In kind it is in vivo, Varroa destructor. The settings on record: for Number of dead mites, Day 1 / Number of dead mites, Day 2 / Number of dead mites, Day 3 / Number of dead mites, Day 4 / Number of dead mites, Day 5 / Number of dead mites, Day 6 / Number of dead mites, Day 7 / Number of dead mites, Sum: 25 mites per cage, mean of 6 cages (LiCl) or 3 cages; for Number of dead mites, Sum: 25 mM in 70% sucrose, days 1-7. How it is done: (§2) In a further experiment LiCl, NaCl and MgCl2 were selected and their acaricidal activity compared. The experiment was performed in cages of 50 bees, to each of which 25 mites were added. Bees in control cages received sucrose only. LiCl, NaCl or MgCl2 were added to 70% sucrose solutions at a final concentration of 25 mM each and fed to the bees for seven days. Survival rate of bees and mites were monitored daily. Dead bees and mites were removed from the cages.
(§3) The numbers represent mean values derived from 6 cages. […] Numbers for NaCl, MgCl2 and control represent mean values derived from 3 separate cages.

The subject of data set [3] is bees. Conditions: 50 bees per cage; for Number of dead bees, Day 1 / Number of dead bees, Day 2 / Number of dead bees, Day 3 / Number of dead bees, Day 4 / Number of dead bees, Day 5 / Number of dead bees, Day 6 / Number of dead bees, Day 7: 25 mM in 70% sucrose for seven days; for Number of dead bees, Day 1 / Number of dead bees, Day 2 / Number of dead bees, Day 3 / Number of dead bees, Day 4 / Number of dead bees, Day 5 / Number of dead bees, Day 6 / Number of dead bees, Day 7 / Number of dead bees, Sum: mean of 6 cages (LiCl) or 3 cages; for Number of dead bees, Sum: days 1-7. How it is done: as §2, §3

[4] abbreviates: Li-salt 25 mM in sucrose syrup for 7 days, 25 mites per cage, mean of three replicates.
The mark [5] stands for this setting: Li-salt 25 mM in sucrose syrup for 7 days, 50 bees per cage, mean of three replicates.
The mark [6] stands for this setting: 25 mM in 70% sucrose for seven days.

For the compound `O=S(=O)([O-])[O-].[Li+].[Li+]` [Li-sulfate, lithium sulfate], the “effect on mites during the 7-day treatment period” value with Varroa destructor (4 mM, data not shown) is “killed all mites”. In addition, in the data set on Varroa destructor (setting [4]), the “Number of dead mites, Day 1” value is on record as 0.7; the “Number of dead mites, Day 2” value came out at 18.0; the “Number of dead mites, Day 3” value is reported as 5.7; the “Number of dead mites, Day 4” value is recorded as 0.7. In the data set on Varroa destructor (setting [4]), the “Number of dead mites, Day 5” value is listed as 0.0; the “Number of dead mites, Day 6” value was 0.0; the “Number of dead mites, Day 7” value stood at 0.0. For the same compound, in the data set with Varroa destructor (Li-salt 25 mM in sucrose syrup, days 1-7, 25 mites per cage, mean of three replicates), the “Number of dead mites, Sum” value is 25.0. The “impact on bee viability” value in the data set on bees [1] (4 mM, 7-day treatment period, data not shown) is reported as “without a significant negative impact on bee viability”. Also, in the data set with bees [1] (setting [5]), the “Number of dead bees, Day 1” value is 0.0; the “Number of dead bees, Day 2” value is 0.0; the “Number of dead bees, Day 3” value was 0.0; the “Number of dead bees, Day 4” value is recorded as 1.0. Also, in the data set on bees [1] (setting [5]), the “Number of dead bees, Day 5” value stood at 3.7; the “Number of dead bees, Day 6” value was 1.7; the “Number of dead bees, Day 7” value stood at 0.0. For the same compound, the “Number of dead bees, Sum” value in the data set on bees [1] (Li-salt 25 mM in sucrose syrup, days 1-7, 50 bees per cage, mean of three replicates) turned out to be 6.3.

With `[Cl-].[Cl-].[Mg+2]` [MgCl2], the “effect on bee health” value with bees [2] was “impair bee health substantially”. Moreover, in the data set with Varroa mites (setting [6]), the “Number of dead mites, Day 1” value is given as 0.3; the “Number of dead mites, Day 2” value amounted to 1.0; the “Number of dead mites, Day 3” value is recorded as 1.0; the “Number of dead mites, Day 4” value came to 3.7. In the data set on Varroa mites (setting [6]), the “Number of dead mites, Day 5” value turned out to be 0.7; the “Number of dead mites, Day 6” value is reported as 0.0; the “Number of dead mites, Day 7” value is 0.0. Moreover, the “Number of dead mites, Sum” value in the data set on Varroa mites came to 6.7. For the same compound, in the data set on bees [3], the “Number of dead bees, Day 1” value was determined as 0.0; the “Number of dead bees, Day 2” value was 18.0; the “Number of dead bees, Day 3” value was 18.3; the “Number of dead bees, Day 4” value is given as 9.3. For the same compound, in the data set with bees [3], the “Number of dead bees, Day 5” value came out at 4.3; the “Number of dead bees, Day 6” value came to 0.0; the “Number of dead bees, Day 7” value came to 0.0. Moreover, in the data set on bees [3] (25 mM in 70% sucrose), the “Number of dead bees, Sum” value turned out to be 50.0 and the “time after which all bees were dead” value is 5 days.

Consider `[Cl-].[Na+]` [NaCl], for which, in the data set with Varroa mites (setting [6]), the acaricidal effect result is “fails to exhibit an acaricidal effect”; the “Number of dead mites, Day 1” value is 0.0; the “Number of dead mites, Day 2” value amounted to 0.3; the “Number of dead mites, Day 3” value is listed as 0.0. Moreover, in the data set on Varroa mites (setting [6]), the “Number of dead mites, Day 4” value was determined as 0.0; the “Number of dead mites, Day 5” value is 0.3; the “Number of dead mites, Day 6” value was found to be 0.7; the “Number of dead mites, Day 7” value is 1.0. In addition, the “Number of dead mites, Sum” value in the data set with Varroa mites was 2 and 2.3. For the same compound, in the data set with bees [3], the “Number of dead bees, Day 1” value is reported as 0.0; the “Number of dead bees, Day 2” value is on record as 0.0; the “Number of dead bees, Day 3” value was 0.0; the “Number of dead bees, Day 4” value was 0.3. Besides, in the data set with bees [3], the “Number of dead bees, Day 5” value amounted to 0.0; the “Number of dead bees, Day 6” value is listed as 0.0; the “Number of dead bees, Day 7” value was 1.3. Further, the “Number of dead bees, Sum” value in the data set with bees [3] (25 mM in 70% sucrose) is 2 and 1.7.
